By t½ is commonly meant the time in which the quantity being followed falls by half. Low readings indicate rapid decline, high ones slow decline. The Kd is the concentration at which binding is half-saturated. Higher therefore signals a looser complex.

The results in this text go back to patent publication US20230346988A1, “SYSTEMS FOR IN VIVO MONITORING OF IMMUNE CELLS IN PATIENTS UNDERGOING CELLULAR IMMUNOTHERAPY” (Memorial Sloan Kettering Cancer Center, priority 2020, published 2023).

This assay has as its system antitumor/anti-DOTA IgG-scFv. Description: Affinity measurement of DOTA-PEG6 Biotin by surface plasmon resonance (Biacore). The settings on record: SA chip coated with DOTA-PEG6 Biotin, 1:1 binding model. The source says: Affinity measurement of […] by Surface Plasmon Resonance (Biacore). sBiacore T-100 Biosensor, streptavidin (SA) sensor chip, and related reagents were purchased from GE Healthcare. The SA chip coated with […] and then flowed over with an antitumor/anti-DOTA IgG-scFv. The KDs were generated from a sensorgram data series consisting of 6 concentrations of anti-tumor/anti-DOTA IgG-scFv, by fitting to a 1:1 binding model using the Biacore T-100 evaluation software.

On to `O=C(O)CN1CCN(CC(=O)O)CCN(CC(=O)O)C(Cc2ccc(NC(=S)NCCOCCOCCOCCOCCOCCOCCNC(=O)CCCCC3SC[C@@H]4NC(=O)N[C@H]34)cc2)CN(CC(=O)O)CC1` (stereo partly shown) [DOTA-PEG6 Biotin], for which the t½ worked out at 3.811 h. For the same compound, where the note is “6 concentrations of IgG-scFv”, binding was characterised by a dissociation constant (Kd) of 0.0686 nM, the ka worked out at 736000 M⁻¹ s⁻¹ and the kd is 5.05e-05 s⁻¹.
